Experiment [1] deals with T1, CHO cells stably transfected with human steroid sulfatase (CHO/STS) (Homo sapiens, UniProt P08842).
T1 construct: expressed in transfected cells; host or cells: CHO cells, stably transfected
T1 sequence (P08842 22-583): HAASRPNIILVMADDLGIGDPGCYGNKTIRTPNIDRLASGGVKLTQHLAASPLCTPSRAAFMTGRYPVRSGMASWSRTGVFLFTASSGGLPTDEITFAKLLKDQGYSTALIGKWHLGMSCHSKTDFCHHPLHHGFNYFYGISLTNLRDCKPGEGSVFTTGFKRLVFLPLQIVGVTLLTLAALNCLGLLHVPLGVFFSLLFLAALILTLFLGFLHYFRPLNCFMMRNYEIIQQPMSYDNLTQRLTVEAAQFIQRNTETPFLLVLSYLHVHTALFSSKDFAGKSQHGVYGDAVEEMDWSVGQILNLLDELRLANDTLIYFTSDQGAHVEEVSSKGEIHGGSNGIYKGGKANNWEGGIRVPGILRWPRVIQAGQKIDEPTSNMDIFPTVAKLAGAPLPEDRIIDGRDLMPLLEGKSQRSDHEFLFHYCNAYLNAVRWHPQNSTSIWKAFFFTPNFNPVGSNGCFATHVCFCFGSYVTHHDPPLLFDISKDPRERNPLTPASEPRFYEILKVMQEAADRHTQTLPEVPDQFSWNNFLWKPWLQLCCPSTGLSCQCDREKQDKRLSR
Briefly: Steroid sulfatase inhibition in the CHO/STS assay. The class given is cell-based. The conditions noted are these: assay 2, CHO/STS cells, overnight incubation, MUS substrate. On the procedure:
2. Steroid sulfatase inhibition in the CHO/STS assay:
CHO cells stably transfected with human steroid sulfatase (CHO/STS) are seeded into microtiter plates. After reaching approximately 90% confluency, they are incubated overnight with graded concentrations of test substances. They are then fixed with 4% paraformaldehyde for 10 minutes at room temperature and washed 4 times with PBS before incubation with 100 μl/well 0.5 mM 4-methylumbelliferyl sulfate (MUS) dissolved in 0.1M Tris-HCl, pH 7.5. The enzyme reaction is carried out at 37° C. for one hour. Then 50 μl/well stop solution (1M Tris-HCl, pH 10.4) are added. The enzyme reaction solutions are transferred to white plates (Microfluor, Dynex, Chantilly, Va., USA) and read in a Fluoroskan II fluroescence microtiter plate reader. Reagent blanks are subtracted from all values. For drug testing, the fluorescence units (FU) are divided by the optical density readings after staining cellular protein with sulforhodamine B (OD550) in order to correct for variations in cell number. IC50 values are determined by linear interpolation between two bracketing points. In each assay with inhibitors, estrone 3-O-sulfamate is run as a reference compound, and the IC50 values are normalized to estrone 3-O-sulfamate:
relative IC50=IC50 compound/IC50 estrone 3-O-sulfamate.

Experiment [2] deals with T2, Purified human steroid sulfatase (Homo sapiens, UniProt P08842).
T2 sequence (P08842 22-583): T1 sequence (P08842 22-583)
Briefly: Steroid sulfatase inhibition in vitro (p-nitrocatechol sulfate cleavage).
Method: Steroid sulfatase inhibition in vitro:
Purified human steroid sulfatase not only is capable of cleaving steroid sulfates, but also readily cleaves aryl sulfates, such as p-nitrocatechol sulfate which is used herein. Assay mixtures are prepared by consecutively dispensing the following solutions into the wells of flat-bottom microtiter plates:
1) 50 μl inhibitor dilution in buffer (=0.1 M Tris-HCl, ph 7.5, 0.1% Triton X-100);
2) 50 μl substrate (=20 mM p-nitrocatechol sulfate in buffer)
3) 50 μl enzyme dilution to give a final concentration of 75 nM steroid sulfatase.
Plates are incubated at 37° C. for 30 minutes. The assay is stopped by addition of 100 μl of 1 N NaOH, and optical density measured in a microplate reader at 492 nm. […] IC50 values are calculated by nonlinear regression of the concentration/optical density data using the program Grafit (Erithacus Ltd.). Reported values are the result of three determinations.
From the fluorescence intensity data (I) obtained at different concentrations (c) of the test compound, the concentration inhibiting the enzymatic activity at 50% (IC50) is calculated using the equation [formula]
Relative IC50 values (rel IC50) are defined as follows: [formula]

What is called IC50 is the concentration that gives 50% inhibition. Lower therefore signals greater potency in that assay. Turning to `NS(=O)(=O)Oc1ccc2nc(C=C3C4CC5CC(C4)CC3C5)oc2c1` [Example 12, sulfamic acid 2-(adamantan-2-ylidenemethyl)benzoxazol-6-yl ester], in experiment [1], the “rel IC50 (IC50 compound/IC50 estrone 3-O-sulfamate)” value turned out to be 1.25. The IC50 in experiment [2] is about 970 nM.
